Assay results taken from patent publication US20250002507A1, “7,8-DIHYDRO-5H-1,6-NAPHTHYRIDINE DERIVATIVES AS POSITIVE ALLOSTERIC MODULATORS OF THE MUSCARINIC ACETYLCHOLINE RECEPTOR M4 FOR TREATING NEUROLOGICAL AND PSYCHIATRIC DISORDERS” (Vanderbilt University, priority 2021, published 2025).
Like-named read-outs stand apart in the source and are kept apart here.

Biological target: T1, Human M4 (Homo sapiens, UniProt P08173)
T1 construct: expressed in transfected cells
T1 sequence (P08173 1-479): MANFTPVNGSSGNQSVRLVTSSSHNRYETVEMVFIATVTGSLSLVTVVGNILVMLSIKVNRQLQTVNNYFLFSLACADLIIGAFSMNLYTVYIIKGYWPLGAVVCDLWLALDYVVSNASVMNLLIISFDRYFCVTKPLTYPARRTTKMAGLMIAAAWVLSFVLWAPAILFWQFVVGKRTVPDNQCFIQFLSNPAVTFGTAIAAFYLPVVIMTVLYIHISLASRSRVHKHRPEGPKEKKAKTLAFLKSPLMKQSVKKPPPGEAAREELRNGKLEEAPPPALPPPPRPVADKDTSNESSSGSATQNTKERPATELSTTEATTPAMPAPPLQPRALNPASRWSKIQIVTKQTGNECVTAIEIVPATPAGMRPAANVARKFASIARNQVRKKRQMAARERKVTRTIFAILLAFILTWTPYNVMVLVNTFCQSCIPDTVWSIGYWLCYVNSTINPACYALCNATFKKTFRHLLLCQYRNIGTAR
Assay: mAChR M4 cell-based functional assay (calcium flux, potentiation of EC20 acetylcholine response), hM4-Gqi5 CHO-K1 cells
Settings: for Emax at 30 µM: CHO-K1, % ACh maximum at 30 μM; for EC50: calcium flux, read-out: Human M4 EC50
In short: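 Positive allosteric modulation was scored as a concentration-dependent rise in the response to an EC20 dose of acetylcholine, added 144 s after the compound. Human M4-Gqi5 CHO-K1 cells carried Fluo-4 dye, and compounds ran as 11-point, 3-fold dilution series. EC50 and Emax came from four-parameter logistic fits of the FDSS fluorescence-ratio traces.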

[1] = Table 3, Human M4, read-out: Emax (% ACh maximum at 30 μM)
[2] = Table 3, potentiation of EC20 acetylcholine response, CHO-K1 cells
[3] = Table 4, Human M4, read-out: Emax (% ACh maximum at 30 μM)
[4] = Table 4, potentiation of EC20 acetylcholine response, CHO-K1 cells
[5] = hM4-Gqi5 CHO-K1 cells, PAM of EC20 acetylcholine

Row | Structure (SMILES) | Emax at 30 µM [1] [%] | EC50 [2] [µM] | Emax at 30 µM (human M4, read-out: Emax) [%] | EC50 [5] [µM] | further results
1 | Cc1c(N2CCc3ncc(Nc4nn(C)c5ccccc45)cc3C2)nn2cnnc2c1C [Compound 210, 6-(7,8-dimethyl-[1,2,4]triazolo[4,3-b]pyridazin-6-yl)-N-(1-methyl-1H-indazol-3-yl)-5,6,7,8-tetrahydro-1,6-naphthyridin-3-amine] | 69 | 0.9 | – | – | –
2 | Cc1c(N2CCc3ncc(Cc4ccccc4F)cc3C2)nn2c(C(F)(F)F)nnc2c1C [Compound 309, 6-(7,8-dimethyl-3-(trifluoromethyl)-[1,2,4]triazolo[4,3-b]pyridazin-6-yl)-3-(2-fluorobenzyl)-5,6,7,8-tetrahydro-1,6-naphthyridine] | – | – | – | – | Emax at 30 µM [3]: 83%; EC50 [4]: 1.41 µM
3 | Cc1c(N2CCc3ncc(C(=O)NC4CC4)cc3C2)nn2cnnc2c1C [Compound 57, N-cyclopropyl-6-(7,8-dimethyl-[1,2,4]triazolo[4,3-b]pyridazin-6-yl)-7,8-dihydro-5H-1,6-naphthyridine-3-carboxamide] | – | – | 60 | 7.75 | –
4 | Cc1c(N2CCc3ncc(N4CC5CC4CO5)cc3C2)nn2c(C(F)(F)F)nnc2c1C (stereo not shown) [Compound 316, 5-(6-(7,8-dimethyl-3-(trifluoromethyl)-[1,2,4]triazolo[4,3-b]pyridazin-6-yl)-5,6,7,8-tetrahydro-1,6-naphthyridin-3-yl)-2-oxa-5-azabicyclo[2.2.1]heptane] | – | – | – | – | Emax at 30 µM [3]: 78%; EC50 [4]: 0.573 µM
5 | Cc1cnn(C)c1-c1cnc2c(c1)CN(c1nn3cnnc3c(C)c1C)CC2 [Compound 134, 3-(2,4-dimethylpyrazol-3-yl)-6-(7,8-dimethyl-[1,2,4]triazolo[4,3-b]pyridazin-6-yl)-7,8-dihydro-5H-1,6-naphthyridine] | – | – | 88 | 0.299 | –
6 | COc1ncc(F)cc1-c1cnc2c(c1)CN(c1nn3cnnc3c(C)c1C)CC2 [Compound 179, 6-(7,8-dimethyl-[1,2,4]triazolo[4,3-b]pyridazin-6-yl)-3-(5-fluoro-2-methoxypyridin-3-yl)-5,6,7,8-tetrahydro-1,6-naphthyridine] | 84 | 0.906 | – | – | –
7 | COc1cccc(Nc2cnc3c(c2)CN(c2nn4cnnc4c(C)c2C)CC3)c1F [Compound 65, 6-(7,8-dimethyl-[1,2,4]triazolo[4,3-b]pyridazin-6-yl)-N-(2-fluoro-3-methoxy-phenyl)-7,8-dihydro-5H-1,6-naphthyridin-3-amine] | – | – | 104 | 0.188 | –
8 | Cc1cc2nncn2nc1N1CCc2ncc(-c3ccn(C)n3)cc2C1 [Compound 114, 3-(1-methylpyrazol-3-yl)-6-(7-methyl-[1,2,4]triazolo[4,3-b]pyridazin-6-yl)-7,8-dihydro-5H-1,6-naphthyridine] | – | – | 88 | 0.707 | –

Now from value to compound, other results behind:

Row | Emax at 30 µM [1] [%] | EC50 [2] [µM] | Emax at 30 µM (human M4, read-out: Emax) [%] | EC50 [5] [µM] | Structure (SMILES) | further results
9 | 42 | 1.69 | – | – | Cc1c(N2CCc3ncc(-c4cnn(C5CCCCC5)c4)cc3C2)nn2c(C(F)(F)F)nnc2c1C [Compound 253, 3-(1-cyclohexyl-1H-pyrazol-4-yl)-6-(7,8-dimethyl-3-(trifluoromethyl)-[1,2,4]triazolo[4,3-b]pyridazin-6-yl)-5,6,7,8-tetrahydro-1,6-naphthyridine] | –
10 | 111 | 0.216 | – | – | Cc1c(N2CCc3ncc(Oc4ccc(F)cc4F)cc3C2)nn2c(C(F)(F)F)nnc2c1C [Compound 299, 3-(2,4-difluorophenoxy)-6-(7,8-dimethyl-3-(trifluoromethyl)-[1,2,4]triazolo[4,3-b]pyridazin-6-yl)-5,6,7,8-tetrahydro-1,6-naphthyridine] | –
11 | 76 | 0.788 | – | – | Cc1c(N2CCc3ncc(-c4cnn(C5CCC5)c4)cc3C2)nn2c(C(F)(F)F)nnc2c1C [Compound 235, 3-(1-cyclobutyl-1H-pyrazol-4-yl)-6-(7,8-dimethyl-3-(trifluoromethyl)-[1,2,4]triazolo[4,3-b]pyridazin-6-yl)-5,6,7,8-tetrahydro-1,6-naphthyridine] | –
